In article PMC10005185, “Structure-guided engineering of a receptor-agonist pair for inducible activation of the ABA adaptive response to drought” (Science Advances, 2023):

Assays:
ΔNHAB1 with AtPYL1 = target: T1, ΔNHAB1 with AtPYL1 (Arabidopsis thaliana, UniProt Q8VZS8); assay: PP2C inhibition assay, HAB1 with AtPYL1; assay type: biochemical; conditions: read-out: inhibition of HAB1
T1 construct: His; made in house
Method: (§1) His-tagged receptors and phosphatases were purified using nickel–nitrilotriacetic acid (Ni-NTA) affinity chromatography. Protein integrity was analyzed by SDS–polyacrylamide gel electrophoresis, followed by InstantBlue staining. Phosphatase activity was measured using p-Nitrophenyl Phosphate (pNPP) (25 mM) as substrate, 10 mM MnCl2,1 μM PP2C, and 2 μM of the indicated receptors. Proteins were incubated with the ligands for 10 min at room temperature. pNPP was then added to start the reactions, and the absorbance at 405 nm was monitored for 20 min in a ViktorX5 plate reader. Assays were repeated twice. For dose-response experiments, IC50 values were obtained with GraphPad Prism 9 using a nonlinear regression curve fit. Each ligand concentration was tested in triplicate. Phosphatase activity of ABI1 was measured using RRA(phosphoT)VA peptide as a substrate, as described ([27]).

ABI1 with AtPYL1 = target: T2, ABI1 with AtPYL1 (Arabidopsis thaliana, UniProt Q8VZS8); assay: PP2C inhibition assay, ABI1 with AtPYL1; assay type: biochemical; conditions: 1 µM phosphatase:2 µM receptor; read-out: IC50 of ABI1 with AtPYL1
T2 construct: His; made in house
T2 sequence (Q8VZS8 whole entry): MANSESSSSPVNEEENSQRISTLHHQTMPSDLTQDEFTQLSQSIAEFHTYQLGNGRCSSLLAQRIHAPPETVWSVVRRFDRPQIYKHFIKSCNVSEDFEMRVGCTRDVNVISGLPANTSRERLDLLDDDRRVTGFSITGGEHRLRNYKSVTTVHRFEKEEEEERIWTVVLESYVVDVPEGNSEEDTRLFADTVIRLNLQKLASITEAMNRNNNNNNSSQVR
T2 sequence (P49597 whole entry partner): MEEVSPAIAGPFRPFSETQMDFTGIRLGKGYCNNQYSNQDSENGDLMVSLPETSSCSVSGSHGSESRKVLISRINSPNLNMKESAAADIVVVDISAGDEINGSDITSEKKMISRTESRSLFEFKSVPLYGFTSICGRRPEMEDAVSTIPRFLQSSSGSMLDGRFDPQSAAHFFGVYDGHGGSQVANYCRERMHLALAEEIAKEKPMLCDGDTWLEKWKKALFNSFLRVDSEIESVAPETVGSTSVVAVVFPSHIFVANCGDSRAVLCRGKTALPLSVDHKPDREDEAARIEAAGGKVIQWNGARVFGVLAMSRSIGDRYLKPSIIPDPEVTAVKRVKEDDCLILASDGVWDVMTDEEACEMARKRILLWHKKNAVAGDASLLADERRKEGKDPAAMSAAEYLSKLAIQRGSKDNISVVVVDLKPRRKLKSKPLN
Method: as §1, with “([27]). […]” for “([27]).”
(D) Dose response analysis of iSB09 or ABA-dependent inhibition of ABI1 (blue and black lines, respectively) in presence of either AtPYL1 or AtPYR1. Values (average of duplicates) show PP2C activity after incubation with the indicated concentration of ligand and receptor at 1:2 ratio (1 µM phosphatase:2 µM receptor). […]
whereas with AtPYR1 was 200 nM and 213 nM, for ABA and iSB09, respectively. Ligands were assayed

HAB1 with AtPYL4 = target: T3, HAB1 with AtPYL4 (Arabidopsis thaliana, UniProt O80920); assay: PP2C inhibition assay, HAB1 with AtPYL4; assay type: biochemical; conditions: 1 µM phosphatase:2 µM receptor
T3 construct: His; made in house
T3 sequence (Q9CAJ0 179-511): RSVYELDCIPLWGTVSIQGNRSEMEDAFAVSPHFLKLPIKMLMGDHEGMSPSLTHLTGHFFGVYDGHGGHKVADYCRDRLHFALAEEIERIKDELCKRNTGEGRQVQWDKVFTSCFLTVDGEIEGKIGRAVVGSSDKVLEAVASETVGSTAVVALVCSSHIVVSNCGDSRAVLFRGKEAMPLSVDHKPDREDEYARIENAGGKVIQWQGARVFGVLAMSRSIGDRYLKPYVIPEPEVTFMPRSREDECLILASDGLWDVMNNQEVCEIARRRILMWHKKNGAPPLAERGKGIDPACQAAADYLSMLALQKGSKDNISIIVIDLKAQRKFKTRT
T3 sequence (O80920 whole entry): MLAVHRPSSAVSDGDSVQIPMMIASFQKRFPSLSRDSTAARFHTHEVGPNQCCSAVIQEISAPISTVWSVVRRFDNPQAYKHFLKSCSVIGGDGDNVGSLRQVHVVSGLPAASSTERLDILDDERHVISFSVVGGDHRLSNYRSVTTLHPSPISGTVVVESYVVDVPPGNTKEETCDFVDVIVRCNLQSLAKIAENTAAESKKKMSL
Method: as §1
(§2) Fig. S6. QB lacks bioactivity in tomato whereas iSB09 is
(§3) (A) Quantification of the leaf temperature difference at 2 and 5 days after spraying tomato plants with 0.1 % DMSO
(§4) (mock- treated control), 10 µM iSB09 or 10 µM QB.
Asterisk indicates p<0.001 (Student’s t test). Values show individual points and average ± SD (n=4 replicates for mock and chemical treatments). (B) IR-images of representative tomato plants at 2 days after being treated with 0.1 % DMSO […]

[1] = tested on: Arabidopsis thaliana plants (WT Col-0, CsPYL1^5m lines); assay: Whole-plant gas exchange, stomatal conductance (Gs); assay type: in vivo
Method: A. thaliana seeds were planted in specific gas exchange pots, where above- and below-ground parts can be separated by glass into 2:1 (v:v) peat:vermiculite mixture. The plants were grown in growth chambers (Snijders Scientific, Drogenbos, Belgium) at 12/12 photoperiod, 23/18°C temperature, 160 μmol m^−2 s^−1 light, and 70% relative humidity and were 23 to 28 days old during gas exchange experiments. Whole-rosette stomatal conductances were recorded with an eight-chamber custom-built temperature-controlled gas exchange device as described before ([72]). Plants were inserted into the measurement cuvettes and allowed to stabilize at standard conditions: ambient CO2, ~420 ppm; air temperature, 24° ± 0.5°C; light, 160 μmol m^−2 s^−1; relative air humidity, 66 ± 3%. For sprayings, plants were removed from gas exchange cuvettes, sprayed with respective solutions, and put back into the cuvettes for stomatal conductance recordings for 56 min. To check the long-term effect of compounds on plants, stomatal conductance measurements were performed about 24 and 48 hours after sprayings. In the meantime, plants were kept in growth chambers as described above. Photographs of plants were taken after the experiment, and leaf rosette area was calculated using ImageJ 1.37v [National Institutes of Health (NIH), USA]. Stomatal conductance for water vapor was calculated with a custom-written program as described ([72]).

tomato plants = assay: IR thermography of leaf temperature, tomato; assay type: in vivo, Solanum lycopersicum; conditions: 10 μM
Method: For experiments using N. benthamiana or S. lycopersium, 1-month-old plants grown under long-day conditions (16-hour light/8-hour dark) were sprayed with 10 mM MES (pH 5.7) + 0.02% Silwet L77 supplemented with either 50 μM ABA, or the indicated concentration of iSB07/iSB09 or 0.1% DMSO as a mock-treated control. IR images were taken using a FLIR E95 thermocamera 1 day after the treatment (for N. benthamiana) or 2 and 5 days (for S. lycopersicum). Quantification was performed using the FLIR tools software on fully expanded leaves by analyzing 10 sections per leaf. At least six plants per genotype and treatment were analyzed in each experiment. Experiments were repeated twice. The average plant temperature ± SD of all the plants for each treatment and genotype was calculated and used to report the increase in temperature produced by each treatment. Statistical comparisons among genotypes were performed by either pairwise t tests or one-way ANOVA.
as §2, §3, §4
Asterisk indicates p<0.001 (Student’s t test). Values show individual points and average ± SD (n=4 replicates for mock and chemical treatments). (B) IR-images of representative tomato plants at 2 days after being treated with 0.1 % DMSO
Photographs were taken with white light (leaf panel) or infrared thermography (right panel) using the camera FLIR
HAB1 phosphatase activity in presence of PYL4. IC50 values for iSB09 or QB-dependent inhibition of HAB1 by AtPYL4. Values (average of duplicates) show PP2C activity after incubation with the indicated concentration of ligand and AtPYL4 at 1:2 ratio (1 µM phosphatase:2 µM receptor).
(1 picture or pasted object on this page, not shown here)

T1 sequence (Q8VZS8 whole entry, stated change not applied): as the sequence (Q8VZS8 whole entry) above

In the case of `CCn1c(=O)cc(C)c2cc(CNS(=O)(=O)c3ccccc3)ccc21` [iSB09], the inhibition at 1 µM (ΔNHAB1 with AtPYL1) is reported as 60 to 70%, the IC50 (ABI1 with AtPYL1) is reported as 226 nM and the IC50 (HAB1 with AtPYL4) is reported as 330 nM. The “effect on stomatal conductance (Gs)” value ([1]; WT, spraying with 5 μM) was “nonsignificant”, the “reduction of stomatal conductance (Gs)” value ([1]; WT, spraying with 20 μM) was “effective” and the “duration of the effect on Gs” value ([1]; transgenic lines, 5 μM) was no less than 48 h. For the same compound, the “reduction of Gs 24 and 48 hours after spraying” value ([1]; transgenic lines, 5 μM) was “significantly evident”, the “bioactivity in tomato (leaf temperature)” value (tomato plants; 2 and 5 days after spraying) was “active” and the “persistence of the effect on leaf temperature after spraying” value (tomato plants; tomato) was “up to 5 days”.
